Measurements as given in paper PMC13188182, “Role of DZ2002 in reducing corneal graft rejection in rats by influencing Th17 activation via inhibition of the PI3K/AKT pathway and downregulation of TRAF1” (Open Life Sciences, 2026).

Target: T1, TRAF1
T1 construct: TRAF1 protein amine-coupled to carboxylated SPR chip
Experiment: surface plasmon resonance, TRAF1 immobilized
Assay type: binding
Conditions: PBST running buffer; analyte 0-500 μM; Fc2-Fc1 double-referenced

SMILES: N[C@@H](CCS)C(=O)O [L-homocysteine]
- Kd: 246 µM
